Results as given in patent US20230094076A1, “COMBINATION THERAPY” (GlaxoSmithKline Intellectual Property Development Limited, priority 2016, published 2023).
Where two headings read alike, the source gives them in different places.

System: Toledo (human DLBCL) xenograft
Conditions: for Body weight Difference (vs. vehicle) / Regression: Toledo (DLBCL), Day 28

Structure (SMILES): CCOCC1(COCC)CCC(c2n[nH]cc2CN(C)CCNC)CC1 [Compound A]
- Body weight Difference (vs. vehicle) (150 QD mg/kg oral): −4%
- Body weight Difference (vs. vehicle) (300 QD mg/kg oral): −3%
- Regression (300 QD mg/kg oral): 37%
- Body weight Difference (vs. vehicle) (450 QD mg/kg oral): −8%
- Regression (450 QD mg/kg oral): 58%
- Body weight Difference (vs. vehicle) (600 QD mg/kg oral): −7%
- Regression (600 QD mg/kg oral): 62%
- doses at which regressions were observed (Toledo xenograft, oral daily, 28 days): ≥ 300 mg/kg
- body weight loss (any dose group, 150-600 mg/kg daily): no significant body weight loss
